Legend:
BTK = target: T1, BTK (Homo sapiens, UniProt Q06187); experiment: BTK kinase assay (HotSpot, 33P ATP); format: biochemical; conditions: for BTK @ 0.01 μM (% Inh): 0.01 μM compound; for BTK @ 0.01 μM (% Inh) / BTK @ 0.1 μM (% Inh): 10 μM ATP; for BTK @ 0.1 μM (% Inh): 0.1 μM compound; for IC50: 10 dose IC50, 10 μM ATP
T1 construct: purchased Reaction Biology Corporation
Outline: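 In 20 mM Hepes (pH 7.5) with 10 mM MgCl2, 1 mM EGTA, 0.1 mM Na3VO4, 2 mM DTT, 0.02% Brij35, 0.02 mg/mL BSA and 1% DMSO, kinase and substrate were exposed to ten compound doses for 15–20 min.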

CD69+B220+ cells = experiment: B cell activation assay (IgD-stimulated splenocytes, CD69+B220+ cells by FACS); format: cell-based; conditions: 100 nM compound, mouse splenocytes, IgD 3 μg/mL, 4 h
Experimental: 1 Female mouse approximately 2 months old was euthanized with CO2 and the spleen removed. The tissue was homogenized with a polished glass microscope slide. The cells were collected in 5 mL complete medium (RPMI+10% FBS+pen/strep), placed in a 15 mL falcon tube and centrifuged at 500×g for 5 min. The supernatant was discarded and the pellet was resuspended in 3 mL of ACK lysis buffer (NH4Cl 0.17M, KHCO3 10 mM, EDTA-Na2 0.1 mM, pH 7.2), incubated at 37° C. for 5 min. 2 mL complete medium was added and the mixture centrifuged at 500×g for 5 min. The supernatant was discarded and the pellet resuspended in 1 mL complete medium. The mixture was passed through a […] cell strainer and collect in 50 mL falcon tube. Enough medium was added to have a total of 10 mL. The cells were counted and seeded in 24 or 48-well plate in 1 mL complete medium at 10^6 cells/mL. The plate was placed in a 37° C. incubator for 15 min. The cells were treated for 30 min at 37° C. with 100 nM test compound dissolved in 100% DMSO. 3 μL IgD (Accurate chemical and scientific corp.) was added at a final concentration of 3 μg/mL and the mixture incubated at 37° C. for 4 h. The cells were collected in 1.5 mL eppendorf tubes, centrifuged at 500×g for 5 min and then resuspended in 100 μL of PBS+2% FBS. The following antibodies were added: α-B220 PE (pharmingen #553090), α-CD69 APC (pharmingen #60689), live/dead fixable aqua dead cell stain kit (life technologies #L34957) all at 1:300, and the mixture incubated for 15 min at 4° C. in the dark. To this was added 900 μL of PBS+2% FBS and the mixture centrifuged at 500×g for 5 min. The supernatant was removed and the pellet resuspended in 300 μL of PBS+2% FBS and mixed well. The mixture was transferred to a cytometer tube. The samples were run in the FACS Canto II cytometer and quantified by the number of CD69+B220+ cells as a percentage of the total number of B220+ alive cells.

PI3Kδ = target: T2, PI3Kδ (Homo sapiens, UniProt O00329); experiment: PI3Kδ kinase assay (HTRF, PIP3 detection); format: biochemical; conditions: for PI3Kδ @ 0.01 μM (% Inh): 0.01 μM compound; for PI3Kδ @ 0.01 μM (% Inh) / PI3Kδ @ 0.1 μM (% Inh): 10 μM ATP; for PI3Kδ @ 0.1 μM (% Inh): 0.1 μM compound; for IC50: 10 dose IC50, 10 μM ATP
T2 construct: purchased Reaction Biology Corporation
Outline: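 10-dose HTRF assay; kinase preincubated with compound 10 min at RT, then reacted with 10 μM PIP2 and 10 μM ATP for 30 min at 30 °C in HEPES pH 7.0 buffer. PIP3 product displaces biotin-PIP3 from the Eu/APC complex; signal converted to PIP3 via standard curve, IC50 by nonlinear regression.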

T2 sequence (O00329 whole entry): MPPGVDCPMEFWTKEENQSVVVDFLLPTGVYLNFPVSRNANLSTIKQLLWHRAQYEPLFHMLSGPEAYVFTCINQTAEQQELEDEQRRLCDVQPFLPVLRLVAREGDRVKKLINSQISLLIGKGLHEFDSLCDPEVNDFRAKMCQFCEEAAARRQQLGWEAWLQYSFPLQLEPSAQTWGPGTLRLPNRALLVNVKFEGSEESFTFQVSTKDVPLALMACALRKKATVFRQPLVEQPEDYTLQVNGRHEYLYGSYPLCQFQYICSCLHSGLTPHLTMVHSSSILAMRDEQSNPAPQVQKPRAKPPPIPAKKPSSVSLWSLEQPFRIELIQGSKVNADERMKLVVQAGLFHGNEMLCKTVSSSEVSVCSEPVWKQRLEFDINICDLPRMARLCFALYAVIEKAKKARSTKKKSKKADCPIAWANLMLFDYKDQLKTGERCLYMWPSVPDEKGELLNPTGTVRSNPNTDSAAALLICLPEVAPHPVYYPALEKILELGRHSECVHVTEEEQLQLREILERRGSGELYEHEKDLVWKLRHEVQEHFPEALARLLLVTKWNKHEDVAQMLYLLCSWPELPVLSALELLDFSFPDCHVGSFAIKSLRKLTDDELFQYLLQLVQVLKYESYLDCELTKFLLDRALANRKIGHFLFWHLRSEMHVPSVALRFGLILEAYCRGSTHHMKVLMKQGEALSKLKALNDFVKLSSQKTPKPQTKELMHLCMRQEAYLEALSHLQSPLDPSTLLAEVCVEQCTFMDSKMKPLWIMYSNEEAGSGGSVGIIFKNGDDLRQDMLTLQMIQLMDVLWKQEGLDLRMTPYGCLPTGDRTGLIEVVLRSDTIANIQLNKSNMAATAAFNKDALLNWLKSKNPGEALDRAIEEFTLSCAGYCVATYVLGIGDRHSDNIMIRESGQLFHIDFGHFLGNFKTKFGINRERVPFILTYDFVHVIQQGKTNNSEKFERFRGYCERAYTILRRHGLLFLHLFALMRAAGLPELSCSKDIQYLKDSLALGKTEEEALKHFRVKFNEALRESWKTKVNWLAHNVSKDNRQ
T2 sequence (P27986 whole entry partner): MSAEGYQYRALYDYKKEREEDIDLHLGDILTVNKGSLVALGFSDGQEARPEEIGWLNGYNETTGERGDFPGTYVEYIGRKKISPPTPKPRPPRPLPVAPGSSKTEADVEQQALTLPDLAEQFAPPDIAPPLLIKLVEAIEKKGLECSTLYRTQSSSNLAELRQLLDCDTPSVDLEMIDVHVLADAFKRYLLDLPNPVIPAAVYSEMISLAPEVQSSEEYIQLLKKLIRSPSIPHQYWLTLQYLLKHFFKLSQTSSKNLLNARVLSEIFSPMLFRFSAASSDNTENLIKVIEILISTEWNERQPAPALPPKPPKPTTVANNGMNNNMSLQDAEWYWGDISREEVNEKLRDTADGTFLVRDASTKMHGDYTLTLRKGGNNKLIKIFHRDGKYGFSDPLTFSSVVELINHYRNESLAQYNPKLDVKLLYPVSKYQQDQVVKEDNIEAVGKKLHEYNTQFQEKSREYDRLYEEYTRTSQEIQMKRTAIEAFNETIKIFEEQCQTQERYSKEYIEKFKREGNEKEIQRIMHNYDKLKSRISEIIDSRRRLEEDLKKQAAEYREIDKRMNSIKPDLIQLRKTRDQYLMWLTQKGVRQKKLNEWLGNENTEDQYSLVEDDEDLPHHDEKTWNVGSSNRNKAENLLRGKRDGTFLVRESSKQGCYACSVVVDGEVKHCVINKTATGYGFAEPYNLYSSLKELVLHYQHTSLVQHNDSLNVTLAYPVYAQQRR
T1 sequence (Q06187 whole entry): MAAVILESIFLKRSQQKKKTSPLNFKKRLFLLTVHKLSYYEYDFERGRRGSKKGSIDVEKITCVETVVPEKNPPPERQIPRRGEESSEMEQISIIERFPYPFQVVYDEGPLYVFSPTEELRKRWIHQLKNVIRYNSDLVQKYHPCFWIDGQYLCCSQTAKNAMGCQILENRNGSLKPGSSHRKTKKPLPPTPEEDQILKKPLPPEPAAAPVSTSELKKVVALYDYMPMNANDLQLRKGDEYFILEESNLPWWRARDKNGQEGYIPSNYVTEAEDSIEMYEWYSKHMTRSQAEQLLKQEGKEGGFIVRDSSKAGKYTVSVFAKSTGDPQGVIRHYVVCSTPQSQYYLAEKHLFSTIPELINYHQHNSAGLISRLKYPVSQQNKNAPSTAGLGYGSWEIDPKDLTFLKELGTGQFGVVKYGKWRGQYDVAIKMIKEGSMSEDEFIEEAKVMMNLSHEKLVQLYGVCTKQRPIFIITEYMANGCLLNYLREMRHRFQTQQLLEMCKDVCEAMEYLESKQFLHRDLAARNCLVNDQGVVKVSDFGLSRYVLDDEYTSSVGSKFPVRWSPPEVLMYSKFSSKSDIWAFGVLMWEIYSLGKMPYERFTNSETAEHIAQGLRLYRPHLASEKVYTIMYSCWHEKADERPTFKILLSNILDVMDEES

SMILES	BTK @ 0.01 μM (% Inh) (BTK)	BTK @ 0.1 μM (% Inh) (BTK)	CD69 @ 100 nM (% Inh) (CD69+B220+ cells)	PI3Kδ @ 0.01 μM (% Inh) (PI3Kδ)	PI3Kδ @ 0.1 μM (% Inh) (PI3Kδ)	IC50 (BTK) [nM]	IC50 (PI3Kδ) [nM]
CNc1cc(-c2cn(C3Cc4ccccc4C3)c3ncnc(N)c23)cc(F)c1F [compound 113, 5-[3,4-difluoro-5-(methylamino)phenyl]-7-(2,3-dihydro-1H-inden-2-yl)-7H-pyrrolo[2,3-d]pyrimidin-4-amine]	8.12	38.11	11.61 ± 11.81 (n = 3) % Inh	20.77	39.52		
Nc1ncnc2c1c(-c1cc(O)c(F)c(F)c1)cn2C1CCc2ccccc2C1 (centres unmarked) [compound 114, 5-[4-amino-7-(1,2,3,4-tetrahydronaphthalen-2-yl)-7H-pyrrolo[2,3-d]pyrimidin-5-yl]-2,3-difluorophenol]	41.16	86.29	10.19 ± 13.54 (n = 3) % Inh	41.19	84.46	20.2	23.2
NC(=O)c1cc(-c2cn(C3Cc4ccccc4C3)c3ncnc(N)c23)cc(O)c1F [compound 116, 5-[4-amino-7-(2,3-dihydro-1H-inden-2-yl)-7H-pyrrolo[2,3-d]pyrimidin-5-yl]-2-fluoro-3-hydroxybenzamide]	10.59	47.8	20.48 ± 16.90 (n = 3) % Inh	6.65	70.68	71.8	77.9
Nc1ncnc2c1c(-c1cc(O)c(F)c(Cl)c1)nn2C1Cc2ccccc2C1 [compound 117, 5-[4-amino-1-(2,3-dihydro-1H-inden-2-yl)-1H-pyrazolo[3,4-d]pyrimidin-3-yl]-3-chloro-2-fluorophenol]	21.31	67.32	46.59 ± 11.89 (n = 3) % Inh	75.86	91.69		
Nc1ncnc2c1c(-c1cc(O)c(Cl)c(Cl)c1)nn2C1Cc2ccccc2C1 [compound 118, 5-[4-amino-1-(2,3-dihydro-1H-inden-2-yl)-1H-pyrazolo[3,4-d]pyrimidin-3-yl]-2,3-dichlorophenol]	19.01	65.15	44.32 ± 10.35 (n = 3) % Inh	79.16	95.72		
Nc1ncnc2c1c(-c1cc(O)c(F)c(F)c1)nn2C1CCc2ccccc2C1 (centres unmarked) [compound 119, 5-[4-amino-1-(1,2,3,4-tetrahydronaphthalen-2-yl)-1H-pyrazolo[3,4-d]pyrimidin-3-yl]-2,3-difluorophenol]	21.71	70.28	47.52 ± 5.57 (n = 3) % Inh	70.35	91.77		
N#Cc1cc(-c2nn(C3Cc4ccccc4C3)c3ncnc(N)c23)cc(O)c1F [compound 120, 5-[4-amino-1-(2,3-dihydro-1H-inden-2-yl)-1H-pyrazolo[3,4-d]pyrimidin-3-yl]-2-fluoro-3-hydroxybenzonitrile]	93.67	1.41	−99.28 ± 22.26 (n = 3) % Inh	77.84	91.68		
Nc1ncnc2c1c(-c1cc(F)c3c(c1)NCCO3)nn2C1Cc2ccc(F)cc2C1 (centres unmarked) [compound 121, 1-(5-fluoro-2,3-dihydro-1H-inden-2-yl)-3-(8-fluoro-3,4-dihydro-2H-1,4-benzoxazin-6-yl)-1H-pyrazolo[3,4-d]pyrimidin-4-amine]	90.34	6.55	−82.03 ± 14.71 (n = 3) % Inh	1.09	25.95		
